We go through 1 compound from ChEMBL document CHEMBL1148776, “Structure-based optimization of protein tyrosine phosphatase 1B inhibitors: from the active site to the second phosphotyrosine binding site” (J Med Chem, 2007).

Series [1] is described as follows: Drug level in C57/B6 mouse muscle at 10 mg/kg, ip after 1 hr. It is filed as ADME, organism-based, Muscle tissue. To be noted: read-out: Drug uptake. Set-up: dose 10 mg/kg, route intraperitoneal.
Series [2] can be described thus: Stability in human liver microsomes. In kind it is ADME, Microsome.
Series [3] is described as follows: Drug level in C57/B6 mouse plasma at 10 mg/kg, ip after 7 hrs. It is filed as ADME, organism-based. Set-up: dose 10 mg/kg, route intraperitoneal. To be noted: read-out: Drug uptake.
A short description of series [4]: Drug level in C57/B6 mouse muscle at 10 mg/kg, ip after 7 hrs. It is filed as ADME, organism-based, Muscle tissue. Details: dose 10 mg/kg, route intraperitoneal. To be noted: read-out: Drug uptake.
The target of the next series is Cytochrome P450 2C9 (Homo sapiens, UniProt P11712). As to the kind of experiment: Inhibition of CYP2C9. It is filed as ADME.
The nature of series [5]: Half life in Sprague-Dawley rat at 2 mg/kg, iv. In kind it is ADME, organism-based. Details: dose 2 mg/kg, route intravenous. To be noted: in vivo.
A further series deals with T1, Cytochrome P450 2C8 (Homo sapiens, UniProt P10632).
T1 sequence (P10632 whole entry): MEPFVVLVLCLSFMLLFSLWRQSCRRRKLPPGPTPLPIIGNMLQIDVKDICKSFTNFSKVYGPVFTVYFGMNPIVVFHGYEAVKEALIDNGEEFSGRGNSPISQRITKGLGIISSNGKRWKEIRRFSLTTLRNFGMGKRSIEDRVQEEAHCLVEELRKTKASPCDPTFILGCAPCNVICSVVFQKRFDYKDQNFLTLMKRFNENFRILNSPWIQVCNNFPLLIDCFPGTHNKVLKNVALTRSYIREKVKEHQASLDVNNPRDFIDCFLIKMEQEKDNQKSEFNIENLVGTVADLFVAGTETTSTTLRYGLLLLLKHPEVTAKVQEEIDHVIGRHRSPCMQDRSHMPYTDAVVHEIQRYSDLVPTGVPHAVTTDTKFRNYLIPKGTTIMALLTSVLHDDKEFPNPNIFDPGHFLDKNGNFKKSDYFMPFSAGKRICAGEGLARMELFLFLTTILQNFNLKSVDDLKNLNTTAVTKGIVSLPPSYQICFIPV
As to the kind of experiment: Inhibition of CYP2C8. It is filed as ADME.

A short description of series [6]: Drug level in C57/B6 mouse liver at 10 mg/kg, ip after 7 hrs. To be noted: read-out: Drug uptake. In kind it is ADME, organism-based. Details: dose 10 mg/kg, route intraperitoneal.
A further series deals with Cytochrome P450 2C19 (Homo sapiens, UniProt P33261). In words: Inhibition of CYP2C19. In kind it is ADME.
The target in series [7] is Receptor-type tyrosine-protein phosphatase F (Homo sapiens, UniProt P10586). As to the kind of experiment: Inhibition of human recombinant LAR.
A further series has as its target T2, Cytochrome P450 2A6 (Homo sapiens, UniProt P11509).
T2 sequence (P11509 whole entry): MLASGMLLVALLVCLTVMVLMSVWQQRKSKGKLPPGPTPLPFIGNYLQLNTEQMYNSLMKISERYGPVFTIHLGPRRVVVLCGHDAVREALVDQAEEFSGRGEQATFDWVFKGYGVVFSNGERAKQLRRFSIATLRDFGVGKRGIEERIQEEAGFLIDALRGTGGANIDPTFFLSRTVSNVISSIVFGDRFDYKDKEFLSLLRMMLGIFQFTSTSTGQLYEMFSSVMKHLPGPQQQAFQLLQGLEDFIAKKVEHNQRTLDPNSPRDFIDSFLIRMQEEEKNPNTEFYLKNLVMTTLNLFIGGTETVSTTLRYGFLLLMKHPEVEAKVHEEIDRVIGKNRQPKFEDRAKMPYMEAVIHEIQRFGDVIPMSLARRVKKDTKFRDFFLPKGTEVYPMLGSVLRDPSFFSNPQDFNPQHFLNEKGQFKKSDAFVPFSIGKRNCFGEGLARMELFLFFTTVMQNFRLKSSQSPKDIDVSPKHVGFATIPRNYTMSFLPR
In words: Inhibition of CYP2A6. It is filed as ADME.

Series [8] can be described thus: Permeability coefficient across human Caco-2 cells. It is filed as ADME, cell-based. To be noted: read-out: permeability. Background: Passage across Caco-2 layers is used to estimate intestinal permeability.
A short description of series [9]: Cmax in C57/B6 mouse plasma at 10 mg/kg, ip after 1 hr. In kind it is ADME, organism-based. Details: dose 10 mg/kg, route intraperitoneal.
Series [10] is described as follows: Stability in rat liver microsomes. In kind it is ADME, Microsome.
The nature of series [11]: Drug level in C57/B6 mouse liver at 10 mg/kg, ip after 1 hr. In kind it is ADME, organism-based. Details: dose 10 mg/kg, route intraperitoneal. To be noted: read-out: Drug uptake.
A short description of series [12]: Stability in mouse liver microsomes. It is filed as ADME, Microsome. Background: Microsomes from liver hold many membrane-bound enzymes, among them those of drug oxidation.
The target in a further series is Cytochrome P450 3A4 (Homo sapiens, UniProt P08684). In words: Inhibition of CYP3A4. It is filed as ADME.
The nature of series [13]: Plasma clearance in Sprague-Dawley rat at 2 mg/kg, iv. In kind it is ADME, organism-based. Set-up: dose 2 mg/kg, route intravenous.
The next series concerns the target T3, Cytochrome P450 1A2 (Homo sapiens, UniProt P05177).
T3 sequence (P05177 whole entry): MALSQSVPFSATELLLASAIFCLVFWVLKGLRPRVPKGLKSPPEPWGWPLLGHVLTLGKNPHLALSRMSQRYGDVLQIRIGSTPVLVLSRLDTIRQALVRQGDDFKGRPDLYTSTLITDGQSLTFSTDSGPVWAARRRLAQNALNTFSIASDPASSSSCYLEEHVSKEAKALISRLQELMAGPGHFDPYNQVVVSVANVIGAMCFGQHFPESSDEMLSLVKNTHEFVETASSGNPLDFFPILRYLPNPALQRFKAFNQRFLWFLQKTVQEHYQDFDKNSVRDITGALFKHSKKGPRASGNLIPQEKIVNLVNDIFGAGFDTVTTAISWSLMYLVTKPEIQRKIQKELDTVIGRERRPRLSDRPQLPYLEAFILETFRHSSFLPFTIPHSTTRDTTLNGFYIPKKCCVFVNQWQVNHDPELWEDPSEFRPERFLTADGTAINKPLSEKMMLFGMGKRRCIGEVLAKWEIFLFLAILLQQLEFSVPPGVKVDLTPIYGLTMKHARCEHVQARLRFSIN
As to the kind of experiment: Inhibition of CYP1A2. In kind it is ADME.

Series [14] in a line: Aqueous solubility at pH 7.4. It is filed as physicochemical.
In series [15] the target is T4, Receptor-type tyrosine-protein phosphatase C (Homo sapiens, UniProt P08575).
T4 sequence (P08575 whole entry): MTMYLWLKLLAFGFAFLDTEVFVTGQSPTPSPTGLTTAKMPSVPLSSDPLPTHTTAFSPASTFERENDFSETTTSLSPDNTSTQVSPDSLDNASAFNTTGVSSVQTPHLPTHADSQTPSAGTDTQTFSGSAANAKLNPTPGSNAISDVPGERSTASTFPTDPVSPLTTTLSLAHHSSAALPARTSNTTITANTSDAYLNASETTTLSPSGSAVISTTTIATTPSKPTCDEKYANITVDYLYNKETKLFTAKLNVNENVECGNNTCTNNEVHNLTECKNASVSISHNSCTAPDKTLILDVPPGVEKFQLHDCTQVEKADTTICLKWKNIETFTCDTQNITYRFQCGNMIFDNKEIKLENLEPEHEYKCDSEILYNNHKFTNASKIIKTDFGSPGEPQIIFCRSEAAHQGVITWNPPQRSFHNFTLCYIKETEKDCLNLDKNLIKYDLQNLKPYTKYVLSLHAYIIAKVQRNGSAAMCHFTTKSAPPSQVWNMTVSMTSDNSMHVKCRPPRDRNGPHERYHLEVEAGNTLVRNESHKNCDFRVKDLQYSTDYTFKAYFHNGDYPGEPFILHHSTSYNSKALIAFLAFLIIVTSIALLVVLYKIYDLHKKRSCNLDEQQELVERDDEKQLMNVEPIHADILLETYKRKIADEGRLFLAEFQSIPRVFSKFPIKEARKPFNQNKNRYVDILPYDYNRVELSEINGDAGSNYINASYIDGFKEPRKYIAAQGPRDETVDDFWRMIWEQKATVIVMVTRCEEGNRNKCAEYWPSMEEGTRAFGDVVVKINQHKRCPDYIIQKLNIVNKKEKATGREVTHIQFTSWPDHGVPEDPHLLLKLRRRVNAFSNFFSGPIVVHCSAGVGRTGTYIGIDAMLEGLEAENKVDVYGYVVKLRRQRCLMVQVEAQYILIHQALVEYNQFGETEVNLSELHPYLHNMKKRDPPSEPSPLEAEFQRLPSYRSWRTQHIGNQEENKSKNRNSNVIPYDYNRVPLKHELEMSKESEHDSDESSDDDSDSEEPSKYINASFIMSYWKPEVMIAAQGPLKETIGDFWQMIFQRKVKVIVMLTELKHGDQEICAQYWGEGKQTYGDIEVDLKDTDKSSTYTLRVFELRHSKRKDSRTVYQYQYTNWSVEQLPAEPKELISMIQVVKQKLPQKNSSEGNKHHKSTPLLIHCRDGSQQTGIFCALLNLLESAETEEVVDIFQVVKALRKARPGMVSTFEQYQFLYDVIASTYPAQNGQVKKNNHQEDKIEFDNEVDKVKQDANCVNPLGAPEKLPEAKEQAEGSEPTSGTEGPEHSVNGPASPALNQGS
As to the kind of experiment: Inhibition of human recombinant CD45.

For the next series, the target named is Cytochrome P450 2D6 (Homo sapiens, UniProt P10635). In words: Inhibition of CYP2D6. In kind it is ADME.
The next series has as its system Hepatocyte. As to the kind of experiment: Decrease in drug uptake in rat hepatocytes in presence of verapamil. In kind it is ADME, cell-based. Set-up: scale not given: the % may be the effect or the level left.

Receptor-type tyrosine-protein phosphatase F, sequence (P10586 whole entry): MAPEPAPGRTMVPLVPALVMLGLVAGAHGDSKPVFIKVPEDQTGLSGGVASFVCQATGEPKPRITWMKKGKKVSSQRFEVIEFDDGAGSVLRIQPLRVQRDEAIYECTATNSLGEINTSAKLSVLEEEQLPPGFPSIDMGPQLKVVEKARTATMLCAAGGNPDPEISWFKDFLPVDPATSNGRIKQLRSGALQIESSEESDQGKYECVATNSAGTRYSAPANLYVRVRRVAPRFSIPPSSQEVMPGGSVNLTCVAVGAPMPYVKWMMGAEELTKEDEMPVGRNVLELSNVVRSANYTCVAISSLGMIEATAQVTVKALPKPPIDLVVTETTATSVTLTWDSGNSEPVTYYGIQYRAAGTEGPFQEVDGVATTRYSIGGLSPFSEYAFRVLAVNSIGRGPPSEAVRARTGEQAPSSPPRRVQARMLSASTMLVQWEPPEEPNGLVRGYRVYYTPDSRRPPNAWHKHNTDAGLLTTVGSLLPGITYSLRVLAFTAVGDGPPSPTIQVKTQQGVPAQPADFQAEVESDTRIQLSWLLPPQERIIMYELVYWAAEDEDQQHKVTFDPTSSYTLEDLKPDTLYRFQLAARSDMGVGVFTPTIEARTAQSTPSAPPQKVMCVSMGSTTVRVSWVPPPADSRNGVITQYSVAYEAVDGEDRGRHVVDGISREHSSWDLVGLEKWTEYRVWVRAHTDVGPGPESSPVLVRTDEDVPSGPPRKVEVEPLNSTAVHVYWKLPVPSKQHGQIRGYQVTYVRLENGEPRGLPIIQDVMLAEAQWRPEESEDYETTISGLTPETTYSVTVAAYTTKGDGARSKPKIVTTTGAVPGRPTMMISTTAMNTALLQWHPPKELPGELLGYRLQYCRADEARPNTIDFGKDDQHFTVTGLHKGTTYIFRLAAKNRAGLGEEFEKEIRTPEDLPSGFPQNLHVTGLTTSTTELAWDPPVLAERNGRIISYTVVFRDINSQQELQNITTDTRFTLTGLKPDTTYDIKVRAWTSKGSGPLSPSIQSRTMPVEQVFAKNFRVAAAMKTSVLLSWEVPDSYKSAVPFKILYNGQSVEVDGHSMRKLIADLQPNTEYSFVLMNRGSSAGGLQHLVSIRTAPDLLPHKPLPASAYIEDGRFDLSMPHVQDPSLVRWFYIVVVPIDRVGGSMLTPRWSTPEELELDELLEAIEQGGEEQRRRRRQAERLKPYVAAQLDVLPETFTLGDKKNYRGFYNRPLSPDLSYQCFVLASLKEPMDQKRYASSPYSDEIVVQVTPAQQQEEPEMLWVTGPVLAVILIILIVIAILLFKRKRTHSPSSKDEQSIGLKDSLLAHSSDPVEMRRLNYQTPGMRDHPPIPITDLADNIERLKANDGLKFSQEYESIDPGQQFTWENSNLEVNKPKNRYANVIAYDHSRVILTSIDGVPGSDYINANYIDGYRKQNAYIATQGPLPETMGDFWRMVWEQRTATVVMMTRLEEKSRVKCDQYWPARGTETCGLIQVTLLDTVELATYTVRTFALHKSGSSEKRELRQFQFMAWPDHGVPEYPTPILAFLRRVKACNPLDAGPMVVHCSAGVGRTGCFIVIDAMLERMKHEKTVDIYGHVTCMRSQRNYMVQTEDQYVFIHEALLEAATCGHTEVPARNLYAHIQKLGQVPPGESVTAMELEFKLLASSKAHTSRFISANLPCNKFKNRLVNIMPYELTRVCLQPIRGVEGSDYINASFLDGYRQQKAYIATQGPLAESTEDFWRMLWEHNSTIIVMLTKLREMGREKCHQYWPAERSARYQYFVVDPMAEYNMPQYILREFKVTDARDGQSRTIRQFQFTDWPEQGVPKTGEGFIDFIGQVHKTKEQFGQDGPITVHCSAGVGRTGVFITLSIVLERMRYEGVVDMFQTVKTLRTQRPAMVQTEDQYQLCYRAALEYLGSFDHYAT
Cytochrome P450 3A4, sequence (P08684 whole entry): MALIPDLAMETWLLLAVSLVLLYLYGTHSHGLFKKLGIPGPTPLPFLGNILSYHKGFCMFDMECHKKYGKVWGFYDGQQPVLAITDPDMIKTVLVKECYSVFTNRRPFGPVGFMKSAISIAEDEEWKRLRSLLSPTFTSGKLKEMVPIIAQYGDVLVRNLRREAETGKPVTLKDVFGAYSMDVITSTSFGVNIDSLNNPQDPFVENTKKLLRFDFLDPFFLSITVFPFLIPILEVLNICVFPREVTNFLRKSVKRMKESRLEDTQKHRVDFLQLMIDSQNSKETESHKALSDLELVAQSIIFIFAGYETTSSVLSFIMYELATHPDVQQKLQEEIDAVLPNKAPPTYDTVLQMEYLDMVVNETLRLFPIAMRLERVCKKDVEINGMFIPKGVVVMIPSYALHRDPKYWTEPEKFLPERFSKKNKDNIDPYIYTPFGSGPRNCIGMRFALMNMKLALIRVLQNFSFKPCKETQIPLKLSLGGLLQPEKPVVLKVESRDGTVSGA
Cytochrome P450 2D6, sequence (P10635 whole entry): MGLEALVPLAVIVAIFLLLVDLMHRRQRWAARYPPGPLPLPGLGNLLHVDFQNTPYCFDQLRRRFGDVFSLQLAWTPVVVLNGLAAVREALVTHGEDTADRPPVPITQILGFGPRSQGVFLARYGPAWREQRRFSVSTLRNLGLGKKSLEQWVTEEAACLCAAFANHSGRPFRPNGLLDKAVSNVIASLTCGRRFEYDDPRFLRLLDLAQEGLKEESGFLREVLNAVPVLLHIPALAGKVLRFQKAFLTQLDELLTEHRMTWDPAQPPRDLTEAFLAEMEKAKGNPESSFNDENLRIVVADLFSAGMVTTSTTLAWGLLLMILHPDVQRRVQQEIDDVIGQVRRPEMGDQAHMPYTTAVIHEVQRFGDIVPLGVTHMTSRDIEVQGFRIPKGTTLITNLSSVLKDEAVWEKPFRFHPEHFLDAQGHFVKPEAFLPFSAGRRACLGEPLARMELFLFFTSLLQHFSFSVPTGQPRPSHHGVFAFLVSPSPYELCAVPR
Cytochrome P450 2C19, sequence (P33261 whole entry): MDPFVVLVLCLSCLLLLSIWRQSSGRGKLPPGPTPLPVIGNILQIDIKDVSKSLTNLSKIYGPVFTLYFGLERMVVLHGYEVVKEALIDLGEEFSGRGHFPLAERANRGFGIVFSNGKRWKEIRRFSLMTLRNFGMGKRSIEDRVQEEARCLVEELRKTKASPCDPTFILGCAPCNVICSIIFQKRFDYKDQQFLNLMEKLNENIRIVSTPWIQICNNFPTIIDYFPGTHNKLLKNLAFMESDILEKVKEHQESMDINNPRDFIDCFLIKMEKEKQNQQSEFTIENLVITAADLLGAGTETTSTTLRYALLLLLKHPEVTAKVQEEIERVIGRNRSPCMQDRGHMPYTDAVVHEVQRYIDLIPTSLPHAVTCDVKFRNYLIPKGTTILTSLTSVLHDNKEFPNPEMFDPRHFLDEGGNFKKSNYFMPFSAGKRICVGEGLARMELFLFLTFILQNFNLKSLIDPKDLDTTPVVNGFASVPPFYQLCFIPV
Cytochrome P450 2C9, sequence (P11712 whole entry): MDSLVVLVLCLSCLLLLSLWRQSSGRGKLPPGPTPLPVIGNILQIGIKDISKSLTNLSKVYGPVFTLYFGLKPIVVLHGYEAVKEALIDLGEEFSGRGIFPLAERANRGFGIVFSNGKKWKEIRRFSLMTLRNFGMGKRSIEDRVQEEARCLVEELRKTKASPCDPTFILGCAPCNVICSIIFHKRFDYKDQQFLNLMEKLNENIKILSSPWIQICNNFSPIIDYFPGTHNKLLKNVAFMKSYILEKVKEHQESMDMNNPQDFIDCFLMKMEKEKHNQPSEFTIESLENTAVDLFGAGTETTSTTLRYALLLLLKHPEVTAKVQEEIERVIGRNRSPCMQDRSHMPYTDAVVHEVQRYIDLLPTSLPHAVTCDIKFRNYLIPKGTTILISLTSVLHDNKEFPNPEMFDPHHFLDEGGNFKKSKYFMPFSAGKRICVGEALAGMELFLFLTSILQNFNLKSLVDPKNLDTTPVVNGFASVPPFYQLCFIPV

A word on the half-life: it is the time in which the quantity being followed falls by half. By IC50 is commonly meant the midpoint of a concentration-inhibition curve. For orientation: Ki means a measure of affinity in units of concentration, obtained from inhibition or displacement. The Cmax is the highest concentration seen after dosing. As usually defined, the clearance is the rate of elimination divided by the concentration. Broadly, the solubility is the concentration that dissolves in the medium under given conditions. On to `O=C(O)COc1c(C(=O)O)sc(-c2cccc(NC3CCN(S(=O)(=O)Cc4ccccc4)CC3)c2)c1Br`, for which the concentration at 1 h in series [1] amounted to 3500 nM; in [11] it was 6900 nM. In addition, the half-life is greater than 1 h in [2], 10 h in series [5], 0.767 h in series [10] and greater than 1 h in [12]. The concentration at 7 h in series [3] is 370 nM; in series [4] it was 260 nM; in [6] it was 170 nM. Moreover, the concentration for half-maximal inhibition (IC50) was 40 µM against Cytochrome P450 2C9; greater than 500 µM against Cytochrome P450 2C8; greater than 500 µM on Cytochrome P450 2C19; greater than 500 µM against Cytochrome P450 2A6; greater than 500 µM on Cytochrome P450 3A4; greater than 500 µM against Cytochrome P450 1A2. On Cytochrome P450 2D6, the IC50 is greater than 500 µM. In addition, the Ki in series [7] was greater than 500 µM; in [15], 77 µM. The Papp in series [8] was less than 1 ×10⁻⁶ cm/s. The compound also gave a Cmax in [9] of 15200 nM. The clearance in series [13] is 7 mL/min/kg. In series [14], the solubility was greater than 100 µg/mL. The Activity in the series on Hepatocyte is on record as 70%.
